{"source": "paper PMC7714403", "about": "(JCI Insight, 2020)", "assay_in_all_cases": "KiNativ, MOLM13 live cells", "type_in_all_cases": "cell-based", "key": {"[1]": {"molecular_target": "TLK2 (Homo sapiens, UniProt Q86UE8)", "conditions": "MOLM-13; 100 nM, 2 hours; Lys2; read-out: Inhibition vs DMSO", "protocol": "(§1) Samples were analyzed by KiNativ in situ kinase profiling by ActivX Biosciences."}, "[2]": {"molecular_target": "AKT1 (Homo sapiens, UniProt P31749)", "sequence (P31749 whole entry)": "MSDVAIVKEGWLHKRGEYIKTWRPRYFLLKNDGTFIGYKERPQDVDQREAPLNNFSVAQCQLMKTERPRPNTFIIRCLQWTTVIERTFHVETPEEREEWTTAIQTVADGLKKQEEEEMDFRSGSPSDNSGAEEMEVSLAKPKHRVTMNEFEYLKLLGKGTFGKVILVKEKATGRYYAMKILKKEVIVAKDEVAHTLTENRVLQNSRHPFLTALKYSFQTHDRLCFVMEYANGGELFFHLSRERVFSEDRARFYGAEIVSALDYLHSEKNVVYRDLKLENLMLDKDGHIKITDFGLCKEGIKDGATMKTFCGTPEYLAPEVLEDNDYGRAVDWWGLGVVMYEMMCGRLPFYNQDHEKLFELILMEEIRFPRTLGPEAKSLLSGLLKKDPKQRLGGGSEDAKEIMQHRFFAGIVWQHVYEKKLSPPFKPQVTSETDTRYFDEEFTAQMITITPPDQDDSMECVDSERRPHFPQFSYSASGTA", "conditions": "MOLM-13; 100 nM, 2 hours; ATP Loop; read-out: Inhibition vs DMSO", "protocol": "as §1"}, "[3]": {"molecular_target": "KSR1 (Homo sapiens, UniProt Q8IVT5)", "conditions": "MOLM-13; 100 nM, 2 hours; Activation Loop; read-out: Inhibition vs DMSO", "protocol": "as §1"}, "[4]": {"molecular_target": "MAP4K5 (Homo sapiens, UniProt Q9Y4K4)", "sequence (Q9Y4K4 whole entry)": "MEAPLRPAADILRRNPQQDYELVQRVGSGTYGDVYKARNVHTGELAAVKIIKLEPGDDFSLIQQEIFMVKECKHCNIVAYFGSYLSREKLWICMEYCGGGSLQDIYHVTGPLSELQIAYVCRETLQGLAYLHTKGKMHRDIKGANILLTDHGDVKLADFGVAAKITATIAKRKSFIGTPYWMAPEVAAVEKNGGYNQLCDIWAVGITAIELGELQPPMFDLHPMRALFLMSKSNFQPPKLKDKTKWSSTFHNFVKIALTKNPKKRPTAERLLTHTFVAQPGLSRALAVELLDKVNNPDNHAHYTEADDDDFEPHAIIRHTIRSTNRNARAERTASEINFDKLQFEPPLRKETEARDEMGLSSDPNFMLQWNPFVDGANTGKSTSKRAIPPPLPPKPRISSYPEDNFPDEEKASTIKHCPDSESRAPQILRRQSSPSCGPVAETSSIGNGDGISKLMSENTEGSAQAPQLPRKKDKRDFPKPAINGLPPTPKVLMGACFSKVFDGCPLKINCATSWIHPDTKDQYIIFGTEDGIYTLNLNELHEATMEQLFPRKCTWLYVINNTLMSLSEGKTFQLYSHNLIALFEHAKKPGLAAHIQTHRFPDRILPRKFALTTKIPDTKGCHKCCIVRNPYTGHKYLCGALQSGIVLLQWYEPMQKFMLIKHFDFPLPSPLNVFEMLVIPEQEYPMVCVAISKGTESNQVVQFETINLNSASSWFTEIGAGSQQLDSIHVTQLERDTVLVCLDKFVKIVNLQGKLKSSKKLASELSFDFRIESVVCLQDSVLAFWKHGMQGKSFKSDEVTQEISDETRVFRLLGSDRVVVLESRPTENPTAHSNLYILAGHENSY", "conditions": "MOLM-13, 2 h, 100 nM", "protocol": "as §1"}, "[5]": {"molecular_target": "ULK3 (Homo sapiens, UniProt Q6PHR2)", "conditions": "100 nM, 2 hours; Lys1", "protocol": "as §1"}, "[6]": {"molecular_target": "NEK2 (Homo sapiens, UniProt P51955)", "conditions": "MOLM-13; 100 nM, 2 hours; Lys2; read-out: Inhibition vs DMSO", "protocol": "as §1"}, "[7]": {"molecular_target": "BRAF (Homo sapiens, UniProt P15056)", "conditions": "MOLM-13; 100 nM, 2 hours; Lys2; read-out: Inhibition vs DMSO", "protocol": "as §1"}, "[8]": {"molecular_target": "MLK4 (Homo sapiens, UniProt Q5TCX8)", "conditions": "MOLM-13; 100 nM, 2 hours; Lys2; read-out: Inhibition vs DMSO", "protocol": "as §1"}, "[9]": {"molecular_target": "PIK3C3 (Homo sapiens, UniProt Q8NEB9)", "sequence (Q8NEB9 whole entry)": "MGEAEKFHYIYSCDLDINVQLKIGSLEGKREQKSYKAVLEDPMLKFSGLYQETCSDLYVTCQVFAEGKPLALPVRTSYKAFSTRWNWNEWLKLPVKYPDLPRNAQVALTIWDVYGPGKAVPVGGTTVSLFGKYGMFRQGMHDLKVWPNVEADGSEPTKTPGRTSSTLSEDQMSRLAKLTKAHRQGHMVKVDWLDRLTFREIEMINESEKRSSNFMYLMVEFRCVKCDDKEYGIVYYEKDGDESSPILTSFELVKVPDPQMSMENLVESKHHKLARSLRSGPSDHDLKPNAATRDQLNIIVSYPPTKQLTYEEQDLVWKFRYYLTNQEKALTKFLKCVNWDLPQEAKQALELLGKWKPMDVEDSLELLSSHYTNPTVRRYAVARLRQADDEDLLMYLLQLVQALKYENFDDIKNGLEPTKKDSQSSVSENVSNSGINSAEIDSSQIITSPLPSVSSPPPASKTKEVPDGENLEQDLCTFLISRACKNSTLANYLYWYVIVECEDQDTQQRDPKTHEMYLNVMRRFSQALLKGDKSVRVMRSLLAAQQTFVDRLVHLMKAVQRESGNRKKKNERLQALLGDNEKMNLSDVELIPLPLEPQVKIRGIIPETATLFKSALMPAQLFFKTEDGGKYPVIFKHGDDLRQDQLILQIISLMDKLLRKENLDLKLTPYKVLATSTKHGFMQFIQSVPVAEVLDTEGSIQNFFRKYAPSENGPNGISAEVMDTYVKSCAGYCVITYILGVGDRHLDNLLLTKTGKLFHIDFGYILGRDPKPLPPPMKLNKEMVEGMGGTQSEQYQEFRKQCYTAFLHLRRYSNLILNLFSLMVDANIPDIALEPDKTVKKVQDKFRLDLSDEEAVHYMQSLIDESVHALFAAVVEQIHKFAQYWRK", "conditions": "MOLM-13, 2 h, 100 nM, ATP, read-out: Inhibition vs DMSO", "protocol": "as §1"}, "[10]": {"molecular_target": "PFTAIRE1 (Homo sapiens, UniProt O94921)", "conditions": "100 nM, 2 hours; Lys1", "protocol": "as §1"}, "[11]": {"molecular_target": "MAP2K5 (Homo sapiens, UniProt Q13163)", "conditions": "MOLM-13; 100 nM, 2 hours; Lys2; read-out: Inhibition vs DMSO", "protocol": "as §1"}, "[12]": {"molecular_target": "ARAF (Homo sapiens, UniProt P10398)", "conditions": "MOLM-13; 100 nM, 2 hours; Lys2; read-out: Inhibition vs DMSO", "protocol": "as §1"}, "[13]": {"molecular_target": "TAK1 (Homo sapiens, UniProt O43318)", "conditions": "MOLM-13; 100 nM, 2 hours; Lys2; read-out: Inhibition vs DMSO", "protocol": "as §1"}, "[14]": {"molecular_target": "DGKH (Homo sapiens, UniProt Q86XP1)", "conditions": "MOLM-13; 100 nM, 2 hours; ATP; read-out: Inhibition vs DMSO", "protocol": "as §1"}, "[15]": {"molecular_target": "T1, RSK1 domain1 (Homo sapiens, UniProt Q15418)", "T1 construct": "RSK1 domain1", "conditions": "MOLM-13; 100 nM, 2 hours; Activation Loop; read-out: Inhibition vs DMSO", "protocol": "as §1"}, "[16]": {"molecular_target": "HPK1 (Homo sapiens, UniProt Q92918)", "sequence (Q92918 whole entry)": "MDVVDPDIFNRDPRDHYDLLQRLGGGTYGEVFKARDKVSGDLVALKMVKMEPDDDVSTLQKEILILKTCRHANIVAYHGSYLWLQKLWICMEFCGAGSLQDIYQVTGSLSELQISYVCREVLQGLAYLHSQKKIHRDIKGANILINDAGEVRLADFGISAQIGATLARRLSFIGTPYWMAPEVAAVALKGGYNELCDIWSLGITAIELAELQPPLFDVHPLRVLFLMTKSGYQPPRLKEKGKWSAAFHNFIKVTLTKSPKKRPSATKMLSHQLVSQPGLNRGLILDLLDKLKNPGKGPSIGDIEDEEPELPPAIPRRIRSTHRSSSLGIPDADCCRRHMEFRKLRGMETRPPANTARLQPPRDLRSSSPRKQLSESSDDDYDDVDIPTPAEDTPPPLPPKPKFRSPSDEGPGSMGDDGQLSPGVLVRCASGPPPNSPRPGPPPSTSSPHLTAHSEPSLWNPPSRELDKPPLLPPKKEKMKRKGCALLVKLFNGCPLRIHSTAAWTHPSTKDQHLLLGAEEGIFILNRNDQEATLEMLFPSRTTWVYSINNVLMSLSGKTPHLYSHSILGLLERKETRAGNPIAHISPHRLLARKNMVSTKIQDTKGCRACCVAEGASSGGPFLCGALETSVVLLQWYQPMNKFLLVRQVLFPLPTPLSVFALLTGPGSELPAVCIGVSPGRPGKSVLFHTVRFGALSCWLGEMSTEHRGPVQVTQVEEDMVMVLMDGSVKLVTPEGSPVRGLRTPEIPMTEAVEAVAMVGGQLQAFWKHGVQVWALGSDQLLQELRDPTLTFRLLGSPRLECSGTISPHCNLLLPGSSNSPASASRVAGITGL", "conditions": "MOLM-13, 2 h, 100 nM", "protocol": "as §1"}, "[17]": {"molecular_target": "SYK (Homo sapiens, UniProt P43405)", "conditions": "100 nM, 2 hours", "protocol": "as §1"}, "[18]": {"molecular_target": "NLK (Homo sapiens, UniProt Q9UBE8)", "sequence (Q9UBE8 whole entry)": "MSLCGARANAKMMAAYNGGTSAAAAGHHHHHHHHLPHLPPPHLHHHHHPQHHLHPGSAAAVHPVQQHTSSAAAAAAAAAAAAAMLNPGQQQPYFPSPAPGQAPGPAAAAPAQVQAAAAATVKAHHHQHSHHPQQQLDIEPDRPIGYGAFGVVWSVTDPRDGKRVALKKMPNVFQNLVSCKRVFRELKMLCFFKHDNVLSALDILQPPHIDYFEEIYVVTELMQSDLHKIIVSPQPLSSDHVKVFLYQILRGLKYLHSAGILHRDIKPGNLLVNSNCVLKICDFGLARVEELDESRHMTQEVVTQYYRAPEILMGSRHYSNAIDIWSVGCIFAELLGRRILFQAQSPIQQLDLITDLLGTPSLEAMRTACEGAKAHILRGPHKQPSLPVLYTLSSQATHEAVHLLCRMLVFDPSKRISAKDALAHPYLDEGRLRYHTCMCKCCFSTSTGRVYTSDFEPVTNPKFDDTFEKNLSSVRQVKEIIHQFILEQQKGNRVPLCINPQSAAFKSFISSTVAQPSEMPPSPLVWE", "conditions": "MOLM-13; 100 nM, 2 hours; Lys2; read-out: Inhibition vs DMSO", "protocol": "as §1"}, "[19]": {"molecular_target": "PI4KB (Homo sapiens, UniProt Q9UBF8)", "sequence (Q9UBF8 whole entry)": "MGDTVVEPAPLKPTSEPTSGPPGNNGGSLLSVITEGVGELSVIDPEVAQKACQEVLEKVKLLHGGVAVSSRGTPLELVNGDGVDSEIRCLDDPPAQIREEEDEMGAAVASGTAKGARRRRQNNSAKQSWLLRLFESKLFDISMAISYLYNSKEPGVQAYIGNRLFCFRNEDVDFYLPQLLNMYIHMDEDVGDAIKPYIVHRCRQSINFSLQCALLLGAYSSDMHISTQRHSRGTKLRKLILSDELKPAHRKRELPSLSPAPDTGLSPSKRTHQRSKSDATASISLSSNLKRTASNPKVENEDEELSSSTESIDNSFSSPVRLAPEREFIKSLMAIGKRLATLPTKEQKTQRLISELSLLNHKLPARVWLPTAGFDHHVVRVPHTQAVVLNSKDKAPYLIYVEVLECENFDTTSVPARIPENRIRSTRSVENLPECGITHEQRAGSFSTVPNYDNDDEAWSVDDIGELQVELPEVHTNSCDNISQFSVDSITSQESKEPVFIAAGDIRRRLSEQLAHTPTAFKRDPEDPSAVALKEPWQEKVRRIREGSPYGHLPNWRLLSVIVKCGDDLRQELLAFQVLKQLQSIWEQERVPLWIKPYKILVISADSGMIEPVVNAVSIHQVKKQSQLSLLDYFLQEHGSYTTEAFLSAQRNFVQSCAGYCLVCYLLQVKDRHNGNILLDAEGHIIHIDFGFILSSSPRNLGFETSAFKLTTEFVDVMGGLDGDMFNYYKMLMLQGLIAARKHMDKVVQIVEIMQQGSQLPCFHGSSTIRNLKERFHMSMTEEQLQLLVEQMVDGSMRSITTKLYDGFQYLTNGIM", "conditions": "MOLM-13, 2 h, 100 nM, ATP, read-out: Inhibition vs DMSO", "protocol": "as §1"}, "[20]": {"molecular_target": "MLK3 (Homo sapiens, UniProt Q16584)", "conditions": "100 nM, 2 hours; Lys2", "protocol": "as §1"}, "[21]": {"molecular_target": "BTK (Homo sapiens, UniProt Q06187)", "sequence (Q06187 whole entry)": "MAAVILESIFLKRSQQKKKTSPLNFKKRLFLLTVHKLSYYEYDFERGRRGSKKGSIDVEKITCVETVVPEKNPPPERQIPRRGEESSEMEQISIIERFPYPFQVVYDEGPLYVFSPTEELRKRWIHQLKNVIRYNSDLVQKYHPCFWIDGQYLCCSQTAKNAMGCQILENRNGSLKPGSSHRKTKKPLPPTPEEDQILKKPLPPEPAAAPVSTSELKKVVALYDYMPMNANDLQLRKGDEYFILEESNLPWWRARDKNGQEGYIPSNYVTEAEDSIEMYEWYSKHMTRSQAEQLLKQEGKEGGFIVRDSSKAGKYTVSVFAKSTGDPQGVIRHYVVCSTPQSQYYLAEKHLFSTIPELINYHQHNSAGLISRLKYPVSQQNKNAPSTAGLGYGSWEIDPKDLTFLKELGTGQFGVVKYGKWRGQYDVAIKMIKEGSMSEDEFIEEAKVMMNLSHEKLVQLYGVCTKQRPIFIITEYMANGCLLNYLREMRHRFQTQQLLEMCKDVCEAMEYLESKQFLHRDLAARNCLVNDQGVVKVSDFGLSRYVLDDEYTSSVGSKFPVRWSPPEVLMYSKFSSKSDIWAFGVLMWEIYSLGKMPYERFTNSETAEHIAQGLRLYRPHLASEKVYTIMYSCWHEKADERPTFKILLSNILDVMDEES", "conditions": "100 nM, 2 hours; Activation Loop", "protocol": "as §1"}, "[22]": {"molecular_target": "T2, LATS1 (Homo sapiens, UniProt O95835)", "T2 sequence (O95835 1-1130)": "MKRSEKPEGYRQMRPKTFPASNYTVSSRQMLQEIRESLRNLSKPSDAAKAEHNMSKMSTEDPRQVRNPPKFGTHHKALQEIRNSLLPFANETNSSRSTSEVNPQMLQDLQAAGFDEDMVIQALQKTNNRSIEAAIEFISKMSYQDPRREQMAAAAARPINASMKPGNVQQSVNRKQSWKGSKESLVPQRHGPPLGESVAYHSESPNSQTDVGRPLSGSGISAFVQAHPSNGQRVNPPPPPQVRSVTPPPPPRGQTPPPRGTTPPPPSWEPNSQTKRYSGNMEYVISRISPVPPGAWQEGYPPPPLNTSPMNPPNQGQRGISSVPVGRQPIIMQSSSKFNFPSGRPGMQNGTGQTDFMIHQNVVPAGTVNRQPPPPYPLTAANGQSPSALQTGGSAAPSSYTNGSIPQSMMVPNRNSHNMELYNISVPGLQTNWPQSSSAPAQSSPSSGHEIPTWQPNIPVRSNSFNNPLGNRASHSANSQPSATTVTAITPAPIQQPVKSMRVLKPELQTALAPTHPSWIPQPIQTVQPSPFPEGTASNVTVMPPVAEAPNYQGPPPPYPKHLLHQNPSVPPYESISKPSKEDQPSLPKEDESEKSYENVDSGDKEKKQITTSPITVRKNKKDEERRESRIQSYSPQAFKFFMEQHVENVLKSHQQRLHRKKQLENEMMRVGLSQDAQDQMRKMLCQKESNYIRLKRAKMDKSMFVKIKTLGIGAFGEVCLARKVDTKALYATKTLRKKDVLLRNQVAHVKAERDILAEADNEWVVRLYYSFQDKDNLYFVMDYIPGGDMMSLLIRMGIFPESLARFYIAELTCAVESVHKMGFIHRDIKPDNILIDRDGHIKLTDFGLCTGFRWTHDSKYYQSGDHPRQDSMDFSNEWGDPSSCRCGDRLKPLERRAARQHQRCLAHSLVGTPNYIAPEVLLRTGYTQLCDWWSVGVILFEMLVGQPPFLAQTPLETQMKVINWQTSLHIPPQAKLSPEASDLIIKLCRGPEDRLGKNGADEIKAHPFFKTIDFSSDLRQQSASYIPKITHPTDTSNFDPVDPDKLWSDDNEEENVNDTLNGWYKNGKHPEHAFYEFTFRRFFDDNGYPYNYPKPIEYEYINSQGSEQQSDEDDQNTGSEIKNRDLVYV", "conditions": "MOLM-13, 2 h, 100 nM", "protocol": "as §1"}, "[23]": {"conditions": "Lys1, read-out: Inhibition vs DMSO"}, "[24]": {"conditions": "Lys2, read-out: Inhibition vs DMSO"}}, "note": "Like-named read-outs stand apart in the source and are kept apart here.", "data": [{"smiles": "CN1CCN(Cc2ccc(Nc3ncc(Cl)c(Nc4ccccc4S(=O)(=O)N(C)C)n3)cc2)CC1", "note": "[TP-0903]", "values": [{"measurement": "inhibition at 0.1 µM", "setting": "[1]", "value": 18, "unit": "%"}, {"measurement": "inhibition at 0.1 µM", "setting": "[2]", "value": -54.3, "unit": "%"}, {"measurement": "inhibition at 0.1 µM", "setting": "[3]", "value": -11, "unit": "%"}, {"measurement": "inhibition at 0.1 µM", "setting": "[4]; [23]", "value": 54.8, "unit": "%"}, {"measurement": "inhibition at 0.1 µM", "setting": "[4]; [24]", "value": 42.9, "unit": "%"}, {"measurement": "Inhibition vs DMSO", "setting": "[5]", "value": 28.7, "unit": "%"}, {"measurement": "inhibition at 0.1 µM", "setting": "[6]", "value": -4.6, "unit": "%"}, {"measurement": "inhibition at 0.1 µM", "setting": "[7]", "value": 16.8, "unit": "%"}, {"measurement": "inhibition at 0.1 µM", "setting": "[8]", "value": -13.5, "unit": "%"}, {"measurement": "inhibition at 0.1 µM", "setting": "[9]; TEDGGKYPVIFKHGDDLR", "value": -23.9, "unit": "%"}, {"measurement": "inhibition at 0.1 µM", "setting": "[9]; TEDGGKYPVIFKHGDDLRQDQLILQIISLMDK", "value": 2.6, "unit": "%"}, {"measurement": "Inhibition vs DMSO", "setting": "[10]", "value": 29.5, "unit": "%"}, {"measurement": "inhibition at 0.1 µM", "setting": "[11]", "value": -1.6, "unit": "%"}, {"measurement": "inhibition at 0.1 µM", "setting": "[12]", "value": -2.9, "unit": "%"}, {"measurement": "inhibition at 0.1 µM", "setting": "[13]", "value": -2.8, "unit": "%"}, {"measurement": "inhibition at 0.1 µM", "setting": "[14]", "value": -1.3, "unit": "%"}, {"measurement": "inhibition at 0.1 µM", "setting": "[15]", "value": -3.8, "unit": "%"}, {"measurement": "inhibition at 0.1 µM", "setting": "[16]; [23]", "value": 58.7, "unit": "%"}, {"measurement": "inhibition at 0.1 µM", "setting": "[16]; [24]", "value": 55.7, "unit": "%"}, {"measurement": "Inhibition vs DMSO", "setting": "[17]; Activation Loop, AQTHGKWPVK", "value": 27.9, "unit": "%"}, {"measurement": "Inhibition vs DMSO", "setting": "[17]; Activation Loop, ISDFGLSKALR", "value": 17.6, "unit": "%"}, {"measurement": "Inhibition vs DMSO", "setting": "[17]; Lys1", "value": 8.1, "unit": "%"}, {"measurement": "inhibition at 0.1 µM", "setting": "[18]", "value": -30.4, "unit": "%"}, {"measurement": "inhibition at 0.1 µM", "setting": "[19]; LLSVIVKCGDDLRQELLAFQVLK", "value": -5.9, "unit": "%"}, {"measurement": "inhibition at 0.1 µM", "setting": "[19]; VPHTQAVVLNSKDK", "value": -12.3, "unit": "%"}, {"measurement": "Inhibition vs DMSO", "setting": "[20]", "value": 20.5, "unit": "%"}, {"measurement": "Inhibition vs DMSO", "setting": "[21]", "value": 57.0, "unit": "%"}, {"measurement": "inhibition at 0.1 µM", "setting": "[22]; [23]", "value": 6.7, "unit": "%"}, {"measurement": "inhibition at 0.1 µM", "setting": "[22]; [24]", "value": -12.4, "unit": "%"}]}]}
